Data reported in ChEMBL document CHEMBL1201862, “PubChem BioAssay data set” (2004).
Activity calls are given as the source filed them.

Tests used:
[1] = target: T1, High affinity choline transporter 1 (Homo sapiens, UniProt Q9GZV3); assay: human choline transporter blockers, potency – cell-based, 5-point CRC, membrane potential dye, dose response (AID 504840); type: functional
T1 sequence (Q9GZV3 whole entry): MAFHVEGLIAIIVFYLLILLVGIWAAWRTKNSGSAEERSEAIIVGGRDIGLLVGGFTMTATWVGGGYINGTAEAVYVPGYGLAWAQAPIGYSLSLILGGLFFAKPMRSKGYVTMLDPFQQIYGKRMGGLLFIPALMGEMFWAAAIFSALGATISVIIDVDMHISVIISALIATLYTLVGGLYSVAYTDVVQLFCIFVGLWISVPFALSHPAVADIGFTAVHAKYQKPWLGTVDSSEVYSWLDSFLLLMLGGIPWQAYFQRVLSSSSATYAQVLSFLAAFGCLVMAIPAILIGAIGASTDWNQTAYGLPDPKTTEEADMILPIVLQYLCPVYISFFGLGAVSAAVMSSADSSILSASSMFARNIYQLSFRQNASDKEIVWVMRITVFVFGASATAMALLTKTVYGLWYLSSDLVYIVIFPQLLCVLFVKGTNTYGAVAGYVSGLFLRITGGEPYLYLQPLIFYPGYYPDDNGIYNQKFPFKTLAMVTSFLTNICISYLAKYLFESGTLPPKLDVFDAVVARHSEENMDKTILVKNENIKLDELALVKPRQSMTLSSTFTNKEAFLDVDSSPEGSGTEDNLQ

Protein skinhead-1 = target: T2, Protein skinhead-1 (Caenorhabditis elegans, UniProt P34707); type: functional
T2 sequence (P34707 whole entry): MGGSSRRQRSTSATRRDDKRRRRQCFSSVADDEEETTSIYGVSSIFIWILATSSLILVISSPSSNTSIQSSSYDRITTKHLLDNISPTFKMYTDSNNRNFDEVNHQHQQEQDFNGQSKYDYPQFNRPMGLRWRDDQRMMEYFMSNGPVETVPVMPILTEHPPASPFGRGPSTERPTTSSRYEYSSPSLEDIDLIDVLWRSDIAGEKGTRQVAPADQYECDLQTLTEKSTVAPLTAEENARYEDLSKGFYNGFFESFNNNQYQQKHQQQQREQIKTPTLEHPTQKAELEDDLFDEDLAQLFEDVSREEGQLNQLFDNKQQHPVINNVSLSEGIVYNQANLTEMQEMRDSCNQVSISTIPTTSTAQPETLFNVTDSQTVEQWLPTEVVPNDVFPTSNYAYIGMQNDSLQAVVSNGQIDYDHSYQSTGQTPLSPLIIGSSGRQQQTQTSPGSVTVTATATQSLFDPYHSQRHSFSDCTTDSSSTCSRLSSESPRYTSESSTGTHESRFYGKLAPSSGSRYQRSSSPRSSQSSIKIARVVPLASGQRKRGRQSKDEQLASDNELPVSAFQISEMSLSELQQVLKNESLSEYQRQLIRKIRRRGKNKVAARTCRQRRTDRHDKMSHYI

Cytochrome P450 3A4 = Cytochrome P450 3A4 (Homo sapiens, UniProt P08684);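 further: CYP3A4 tested as one member of a cytochrome P450 panel screen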
Caspase-3 = target: T3, Caspase-3 (Homo sapiens, UniProt P42574); type: functional;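 further: Dose-response selectivity test against caspase-3 for candidate inhibitors of sentrin-specific proteases (SENPs)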
T3 sequence (P42574 whole entry): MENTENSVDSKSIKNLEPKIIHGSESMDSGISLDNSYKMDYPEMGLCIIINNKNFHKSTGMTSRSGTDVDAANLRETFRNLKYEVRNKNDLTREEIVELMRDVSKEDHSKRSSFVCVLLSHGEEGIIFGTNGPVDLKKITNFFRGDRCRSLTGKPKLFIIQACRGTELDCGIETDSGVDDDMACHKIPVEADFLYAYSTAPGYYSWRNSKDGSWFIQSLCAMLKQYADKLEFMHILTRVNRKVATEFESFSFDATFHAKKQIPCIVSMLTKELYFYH

[2] = target: T4, Sentrin-specific protease 7 (Homo sapiens, UniProt Q9BQF6); type: functional;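 further: Luminescence-based dose-response confirmation of ultra-high-throughput screening hits, measuring inhibition of SENP7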
T4 sequence (Q9BQF6 whole entry): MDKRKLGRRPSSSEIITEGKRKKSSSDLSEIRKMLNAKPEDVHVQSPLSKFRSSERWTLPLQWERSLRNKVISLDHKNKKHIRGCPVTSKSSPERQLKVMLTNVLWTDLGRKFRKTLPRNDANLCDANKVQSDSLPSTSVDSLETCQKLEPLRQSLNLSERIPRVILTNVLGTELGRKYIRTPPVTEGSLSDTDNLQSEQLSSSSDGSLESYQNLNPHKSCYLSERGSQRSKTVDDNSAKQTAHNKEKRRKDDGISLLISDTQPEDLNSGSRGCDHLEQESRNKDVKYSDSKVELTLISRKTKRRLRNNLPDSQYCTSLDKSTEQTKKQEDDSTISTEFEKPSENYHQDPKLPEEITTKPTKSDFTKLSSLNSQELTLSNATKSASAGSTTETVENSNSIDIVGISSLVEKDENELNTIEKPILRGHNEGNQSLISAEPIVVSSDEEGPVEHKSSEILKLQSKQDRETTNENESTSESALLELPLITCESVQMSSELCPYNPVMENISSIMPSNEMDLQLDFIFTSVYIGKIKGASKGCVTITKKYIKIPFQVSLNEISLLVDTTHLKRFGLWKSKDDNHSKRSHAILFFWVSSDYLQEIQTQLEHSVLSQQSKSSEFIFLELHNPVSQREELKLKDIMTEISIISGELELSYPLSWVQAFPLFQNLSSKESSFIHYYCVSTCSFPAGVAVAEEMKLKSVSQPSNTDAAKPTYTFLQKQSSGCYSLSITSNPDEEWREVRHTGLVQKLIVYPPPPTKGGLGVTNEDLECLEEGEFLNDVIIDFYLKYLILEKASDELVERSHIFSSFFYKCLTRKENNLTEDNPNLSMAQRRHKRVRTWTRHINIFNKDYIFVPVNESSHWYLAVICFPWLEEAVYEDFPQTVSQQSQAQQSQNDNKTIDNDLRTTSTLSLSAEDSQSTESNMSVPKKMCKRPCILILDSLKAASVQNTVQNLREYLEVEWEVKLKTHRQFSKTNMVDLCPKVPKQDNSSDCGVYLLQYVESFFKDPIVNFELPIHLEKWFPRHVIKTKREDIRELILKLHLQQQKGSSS

[3] = target: T5, Sentrin-specific protease 6 (Homo sapiens, UniProt Q9GZR1); type: functional;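 further: Luminescence-based dose-response confirmatory assay of SENP6 inhibition, following up an ultra-high-throughput screen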
T5 sequence (Q9GZR1 whole entry): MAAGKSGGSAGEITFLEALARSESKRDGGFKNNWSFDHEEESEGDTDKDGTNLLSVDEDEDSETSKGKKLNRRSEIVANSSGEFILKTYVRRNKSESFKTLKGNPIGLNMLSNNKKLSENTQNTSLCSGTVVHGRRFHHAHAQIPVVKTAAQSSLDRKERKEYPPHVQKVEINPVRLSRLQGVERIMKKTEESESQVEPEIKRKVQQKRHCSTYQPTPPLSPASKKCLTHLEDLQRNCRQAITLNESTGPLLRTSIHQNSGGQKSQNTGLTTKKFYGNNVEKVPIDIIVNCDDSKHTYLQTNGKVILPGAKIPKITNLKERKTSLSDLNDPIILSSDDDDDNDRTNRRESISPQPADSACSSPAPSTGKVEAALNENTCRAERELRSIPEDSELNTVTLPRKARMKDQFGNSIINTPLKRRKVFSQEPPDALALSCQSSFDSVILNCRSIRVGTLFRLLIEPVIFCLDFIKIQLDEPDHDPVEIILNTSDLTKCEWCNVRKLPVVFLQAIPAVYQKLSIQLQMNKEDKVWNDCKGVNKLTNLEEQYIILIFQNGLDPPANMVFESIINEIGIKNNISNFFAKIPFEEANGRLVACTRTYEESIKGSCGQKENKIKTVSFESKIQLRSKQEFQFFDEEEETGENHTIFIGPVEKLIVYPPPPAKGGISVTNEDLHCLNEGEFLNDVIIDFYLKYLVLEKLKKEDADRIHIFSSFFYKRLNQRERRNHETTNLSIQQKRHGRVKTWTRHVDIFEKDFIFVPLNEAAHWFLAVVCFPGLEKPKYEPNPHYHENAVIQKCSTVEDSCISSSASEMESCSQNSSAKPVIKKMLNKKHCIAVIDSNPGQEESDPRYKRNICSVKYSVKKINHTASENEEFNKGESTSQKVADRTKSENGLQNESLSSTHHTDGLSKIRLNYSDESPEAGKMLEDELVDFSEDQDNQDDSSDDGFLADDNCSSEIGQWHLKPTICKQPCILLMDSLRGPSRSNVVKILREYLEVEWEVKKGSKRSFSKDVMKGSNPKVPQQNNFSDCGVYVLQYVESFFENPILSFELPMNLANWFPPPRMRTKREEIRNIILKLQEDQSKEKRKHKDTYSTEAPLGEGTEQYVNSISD

[4] = target: T6, Sentrin-specific protease 8 (Homo sapiens, UniProt Q96LD8); type: functional;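 further: luminescence read-out of SENP8 inhibition, dose-response confirmation following an ultra-high-throughput screen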
T6 sequence (Q96LD8 whole entry): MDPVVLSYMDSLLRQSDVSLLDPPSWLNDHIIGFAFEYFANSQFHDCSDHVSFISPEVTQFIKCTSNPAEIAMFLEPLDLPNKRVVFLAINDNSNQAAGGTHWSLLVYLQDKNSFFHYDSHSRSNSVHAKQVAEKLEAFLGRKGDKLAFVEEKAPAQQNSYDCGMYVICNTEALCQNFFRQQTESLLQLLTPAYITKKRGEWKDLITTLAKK

[5] = target: T7, Heat shock factor protein 1 (Mus musculus, UniProt P38532); assay: enhancement of HSF1-driven luciferase signal – cell-based, NIH3T3, luminescence, dose retest, confirmation (AID 435004); type: functional;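 further: stress induced by proteasome inhibitor MG132 added 30 min after compound; luciferase reporter driven by HSF1 response element in NIH3T3 cells; actives raise luminescence as potentiators of the MG132 stress response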
T7 sequence (P38532 whole entry): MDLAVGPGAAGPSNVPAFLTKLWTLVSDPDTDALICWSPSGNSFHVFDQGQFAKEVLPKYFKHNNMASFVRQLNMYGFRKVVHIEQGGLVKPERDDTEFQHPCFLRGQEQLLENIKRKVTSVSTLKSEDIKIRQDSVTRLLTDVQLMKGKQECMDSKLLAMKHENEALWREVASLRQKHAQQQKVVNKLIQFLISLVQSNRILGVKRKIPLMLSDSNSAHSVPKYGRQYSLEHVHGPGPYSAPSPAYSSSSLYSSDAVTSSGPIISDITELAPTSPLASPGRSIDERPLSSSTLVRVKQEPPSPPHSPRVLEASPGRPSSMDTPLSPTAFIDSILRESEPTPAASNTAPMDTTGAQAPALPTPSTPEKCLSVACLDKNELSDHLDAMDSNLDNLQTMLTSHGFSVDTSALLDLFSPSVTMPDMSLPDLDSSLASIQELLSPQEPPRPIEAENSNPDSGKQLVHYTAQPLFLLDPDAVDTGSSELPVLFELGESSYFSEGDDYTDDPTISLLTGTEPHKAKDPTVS

[6] = target: Beta-2 adrenergic receptor (Homo sapiens, UniProt P07550); assay: ADRB2 activation measured by internalization – cell-based, FAP fluorogen, flow cytometry, cherry pick 1, dose response (AID 588763); type: functional
[7] = target: T8, Carboxy-terminal domain RNA polymerase II polypeptide A small phosphatase 1 (Homo sapiens, UniProt Q9GZU7); assay: CTDSP1 inhibitors, concentration-response, biochemical, absorbance readout, ultra-high-throughput screen actives (AID 540297); type: functional
T8 sequence (Q9GZU7 whole entry): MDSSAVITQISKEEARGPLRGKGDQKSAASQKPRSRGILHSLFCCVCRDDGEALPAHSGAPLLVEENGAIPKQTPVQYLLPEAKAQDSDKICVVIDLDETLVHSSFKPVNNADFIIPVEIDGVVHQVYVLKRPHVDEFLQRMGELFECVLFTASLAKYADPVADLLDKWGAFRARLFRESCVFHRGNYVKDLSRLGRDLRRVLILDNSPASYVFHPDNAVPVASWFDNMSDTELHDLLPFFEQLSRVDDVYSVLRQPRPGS

[8] = target: DNA dC->dU-editing enzyme APOBEC-3A (Homo sapiens, UniProt P31941); assay: Dose Response confirmation of small molecule APOBEC3A DNA Deaminase Inhibitors via a fluorescence-based single-stranded DNA deaminase assay. [Related pubchem assays (depositor defined):AID493011, AID493024]; type: functional
[9] = target: DNA dC->dU-editing enzyme APOBEC-3G (Homo sapiens, UniProt Q9HC16); type: functional;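 further: Dose-response counterscreen measuring inhibition of APOBEC3G DNA deaminase activity, run while confirming APOBEC3A inhibitors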
DNA dC->dU-editing enzyme APOBEC-3G, sequence (Q9HC16 whole entry): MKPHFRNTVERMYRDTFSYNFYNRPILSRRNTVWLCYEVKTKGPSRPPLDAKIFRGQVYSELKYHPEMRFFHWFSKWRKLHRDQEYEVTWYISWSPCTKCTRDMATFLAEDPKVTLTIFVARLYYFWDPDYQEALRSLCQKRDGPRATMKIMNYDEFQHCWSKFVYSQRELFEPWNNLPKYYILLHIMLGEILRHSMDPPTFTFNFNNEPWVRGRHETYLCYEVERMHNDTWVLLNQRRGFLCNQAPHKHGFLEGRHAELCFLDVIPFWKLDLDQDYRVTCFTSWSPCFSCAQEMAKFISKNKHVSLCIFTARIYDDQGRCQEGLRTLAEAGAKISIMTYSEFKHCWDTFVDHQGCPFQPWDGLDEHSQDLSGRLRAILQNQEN

Beta-2 adrenergic receptor, sequence (P07550 whole entry, the tested form may be a part): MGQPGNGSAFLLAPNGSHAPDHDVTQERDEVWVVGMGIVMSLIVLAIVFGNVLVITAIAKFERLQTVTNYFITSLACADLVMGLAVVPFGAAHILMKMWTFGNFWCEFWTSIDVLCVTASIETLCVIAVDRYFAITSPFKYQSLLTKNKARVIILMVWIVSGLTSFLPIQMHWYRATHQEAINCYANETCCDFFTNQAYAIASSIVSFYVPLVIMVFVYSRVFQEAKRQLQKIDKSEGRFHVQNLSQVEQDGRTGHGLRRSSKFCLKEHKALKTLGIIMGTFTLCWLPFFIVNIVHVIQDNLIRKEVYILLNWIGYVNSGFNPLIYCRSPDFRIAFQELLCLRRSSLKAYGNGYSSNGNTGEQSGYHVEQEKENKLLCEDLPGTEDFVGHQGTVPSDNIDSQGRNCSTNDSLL
Cytochrome P450 3A4, sequence (P08684 whole entry): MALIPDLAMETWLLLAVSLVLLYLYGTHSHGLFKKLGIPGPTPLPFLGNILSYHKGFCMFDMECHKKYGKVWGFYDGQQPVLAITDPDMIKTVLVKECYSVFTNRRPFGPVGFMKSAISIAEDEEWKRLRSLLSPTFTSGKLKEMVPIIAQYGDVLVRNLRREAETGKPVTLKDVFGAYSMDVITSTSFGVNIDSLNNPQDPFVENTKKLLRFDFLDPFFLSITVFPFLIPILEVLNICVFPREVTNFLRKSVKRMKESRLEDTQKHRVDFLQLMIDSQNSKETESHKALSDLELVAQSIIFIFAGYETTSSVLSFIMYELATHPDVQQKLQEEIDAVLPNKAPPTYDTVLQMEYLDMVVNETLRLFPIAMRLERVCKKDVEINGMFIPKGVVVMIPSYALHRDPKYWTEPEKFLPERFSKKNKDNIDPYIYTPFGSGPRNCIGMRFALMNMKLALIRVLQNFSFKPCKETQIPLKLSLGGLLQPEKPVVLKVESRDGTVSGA
DNA dC->dU-editing enzyme APOBEC-3A, sequence (P31941 whole entry): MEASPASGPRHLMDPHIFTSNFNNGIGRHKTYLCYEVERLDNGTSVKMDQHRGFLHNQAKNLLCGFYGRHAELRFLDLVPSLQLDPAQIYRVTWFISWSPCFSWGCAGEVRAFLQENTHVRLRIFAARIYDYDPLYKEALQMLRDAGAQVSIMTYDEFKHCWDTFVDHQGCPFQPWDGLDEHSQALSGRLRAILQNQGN

CC(C)OC(=O)CN1CCN(C2c3ccccc3-c3ccccc32)CC1
IC50 [1]: 10.7 µM (active) | IC50 (Protein skinhead-1): > 100 µM (inactive) | AC50 (Cytochrome P450 3A4): 25.1 µM (inconclusive)

C=COC(=O)CSc1nc(-c2cccs2)ccc1C#N
IC50 (Caspase-3): 13.3 µM (active) | IC50 [2]: 16.4 µM (active) | IC50 [3]: 6.53 µM (active) | IC50 [4]: 8.96 µM (active)

Cc1ccc(C(=O)c2sc3nsc(C)c3c2N)cc1
IC50 (Caspase-3): 28.9 µM (active) | IC50 [2]: 4.6 µM (active) | EC50 [5]: > 260 µM (inconclusive) | IC50 [3]: > 100 µM (inactive) | IC50 [4]: > 100 µM (inactive)

CS(=O)(=O)Nc1ccc(C(=O)Nc2ccc3ccccc3c2)cc1
IC50 (Caspase-3): 6.3 µM (active) | IC50 [2]: 2.98 µM (active) | IC50 [3]: > 100 µM (inactive) | IC50 [4]: > 100 µM (inactive)

O=C(Nc1cccc(Cl)c1)N1CCc2ccccc2C1
IC50 (Caspase-3): 18.9 µM (active) | IC50 [2]: 7.31 µM (active) | IC50 [3]: 25.5 µM (active) | IC50 [4]: 26.1 µM (active)

COc1ccc(C2=NN(C(=O)c3cccs3)C(c3ccc(OC)cc3)C2)cc1 (stereo unspecified)
EC50 [6]: 4.84 µM (active)

Cc1ncc(CN2CCCC(C(=O)Nc3ccc(-c4cccc(F)c4)cc3)C2)cn1 (stereo unspecified)
EC50 [6]: 0.695 µM (active)

C[C@H]1CN([C@@H](C)CO)C(=O)Cc2cc(NS(=O)(=O)c3cn(C)cn3)ccc2O[C@@H]1CN(C)C(=O)Nc1ccc(F)cc1
IC50 [7]: 33.7 µM (active)

C[n+]1ccc(C(=O)NCc2ccccc2)cc1 [ENISAMIUM IODIDE]
IC50 [8]: 2.98 µM (active) | IC50 [9]: 4.98 µM (active) | IC50 [7]: 9.76 µM (active)
